The values that follow come from PubChem BioAssay (NCI).

“And” between values parts separate entries of the source, which are not always exact repeats. Identical values can stand only once.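 Values below derive from 48-hour exposures of cells grown in 96-well plates, with endpoints linearly interpolated between the two concentrations bracketing the appropriate inhibition level. GI50: concentration for 50% inhibition of growth. Definition used: TGI = concentration required for complete inhibition of growth.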 Some results are limits rather than exact numbers.

Some test systems named below: RXF 393 renal; MCF7 breast; MOLT-4 leukemia; DU-145 prostate; CCRF-CEM leukemia; BT-549 breast; SNB-19 CNS; RPMI-8226 leukemia; UACC-62 melanoma; A498 renal.
Experiment in all cases: NCI tumour cell line growth inhibition, 48 h

In the case of `C=C(CN1CCc2c([nH]c3ccccc23)C1)c1ccc(C(=O)Nc2ccccc2N)cc1`, the GI50 was 4.27 µM with RXF 393 renal; 3.98 µM in the assay on MCF7 breast; 0.116 µM with MOLT-4 leukemia; 3.85 µM in the assay on DU-145 prostate; 0.0581 µM in the assay on CCRF-CEM leukemia; 5.29 µM with BT-549 breast. Further, the GI50 in the assay on SNB-19 CNS was 10.7 µM; in the assay with RPMI-8226 leukemia it was 0.356 µM; in the assay with UACC-62 melanoma it was 1.59 µM. The TGI in the assay on RXF 393 renal worked out at 12.8 µM; with MCF7 breast it was 22.9 µM; in the assay with MOLT-4 leukemia it was 0.405 µM; in the assay on DU-145 prostate, 13.9 µM; with CCRF-CEM leukemia it was 46.3 µM; in the assay on BT-549 breast it was 17.7 µM. The TGI is 30.8 µM with SNB-19 CNS, 3.57 µM in the assay with RPMI-8226 leukemia and 7.43 µM with UACC-62 melanoma.
In the case of `O=c1cc(-c2ccccc2)[nH]c2cc(F)cc(F)c12`, the TGI with RXF 393 renal was 81.7 µM; with MOLT-4 leukemia, over 100 µM; in the assay on CCRF-CEM leukemia, over 100 µM; in the assay with RPMI-8226 leukemia, over 100 µM; with UACC-62 melanoma it was 63.9 µM.
Regarding `COc1ccc(/C=C(\NC(=O)c2ccccc2)c2nc3ccccc3[nH]2)cc1OC`, the TGI with RXF 393 renal, in the assay on MOLT-4 leukemia, with A498 renal, with CCRF-CEM leukemia, in the assay on SNB-19 CNS and in the assay on RPMI-8226 leukemia was over 100 µM each time. In the assay with UACC-62 melanoma, this compound showed a TGI of over 100 µM.
In the case of `CC(=O)OC(C(=O)[O][Sn]([CH3])([CH3])[CH3])c1ccccc1` (stereo not given), the TGI was 0.959 µM in the assay with RXF 393 renal; over 100 µM with MOLT-4 leukemia; over 100 µM in the assay with A498 renal; over 100 µM with CCRF-CEM leukemia; over 100 µM with SNB-19 CNS; over 100 µM in the assay on RPMI-8226 leukemia. This compound also had a TGI in the assay on UACC-62 melanoma of over 100 µM. For the same compound, the GI50 in the assay with MOLT-4 leukemia was over 100 µM; in the assay with A498 renal, over 100 µM; in the assay with CCRF-CEM leukemia, 63.4 µM; in the assay with SNB-19 CNS, over 100 µM; with RPMI-8226 leukemia, over 100 µM; in the assay on UACC-62 melanoma it was over 100 µM.
Take `CC1(C)OC(=S)N(c2ccccc2)C12C=Cc1cc3ccccc3nc1S2` (stereo not given): the TGI in the assay on RXF 393 renal, with MOLT-4 leukemia, with CCRF-CEM leukemia, in the assay on SNB-19 CNS, in the assay on RPMI-8226 leukemia and with UACC-62 melanoma was over 100 µM each time.
For `COC/N=C(\NC#N)NCOC`, the TGI was over 63.3 µM in the assay on RXF 393 renal; over 100 µM with MOLT-4 leukemia; over 100 µM in the assay with A498 renal; over 100 µM in the assay with CCRF-CEM leukemia; over 100 µM with SNB-19 CNS; over 70.8 µM with RPMI-8226 leukemia. Moreover, the TGI in the assay with UACC-62 melanoma was over 100 µM.
On to `Clc1ccccc1CN1COc2c(ccc3cccnc23)C1`, for which the TGI was 6.77 µM with MOLT-4 leukemia; 22.1 µM in the assay with A498 renal; 1.74 µM with CCRF-CEM leukemia; over 100 µM in the assay with SNB-19 CNS; 7.15 µM with RPMI-8226 leukemia; 8.56 µM with UACC-62 melanoma.
In the case of `O=C(Nc1cccc2[nH]c(C(F)(F)F)nc12)c1cc(Cl)ccc1Cl`, the GI50 is 2.81 µM with MCF7 breast; 3 µM in the assay on MOLT-4 leukemia; 1.63 µM in the assay with A498 renal; 4.94 µM with DU-145 prostate; 3.16 µM in the assay on CCRF-CEM leukemia; 2.33 µM with BT-549 breast. In addition, the GI50 in the assay with SNB-19 CNS is 3.72 µM; with RPMI-8226 leukemia, 2.3 µM; with UACC-62 melanoma it was 3.47 µM. Besides, the TGI was 49.7 µM in the assay with MCF7 breast; 8.65 µM with MOLT-4 leukemia; 6.19 µM in the assay with A498 renal; over 100 µM in the assay on DU-145 prostate; 46.8 µM in the assay on CCRF-CEM leukemia; 8.14 µM in the assay on BT-549 breast. The results for the TGI in the assay with SNB-19 CNS, in the assay on RPMI-8226 leukemia and in the assay on UACC-62 melanoma were over 100 µM, 6.3 µM and 16.1 µM, respectively.
Turning to `CCOc1cccc2c1N[S@@](=O)S2`, the TGI in the assay on MOLT-4 leukemia, in the assay on CCRF-CEM leukemia, in the assay with SNB-19 CNS, with RPMI-8226 leukemia and with UACC-62 melanoma was over 100 µM throughout.
Take `CC(=O)/C=C/c1ccc(Nc2c3ccccc3nc3occ(Cl)c23)cc1`: the GI50 with RXF 393 renal was 0.497 µM; with MCF7 breast it was 1.07 µM; in the assay on MOLT-4 leukemia, 2.69 µM; in the assay on CCRF-CEM leukemia, 2.96 µM; in the assay with BT-549 breast it was 4.9 µM; with SNB-19 CNS, 8.71 µM. The GI50 in the assay on UACC-62 melanoma is 1.66 µM. Further, the TGI with RXF 393 renal came out at 7.15 µM; with MCF7 breast, 14.3 µM; in the assay on MOLT-4 leukemia, 13.3 µM; with CCRF-CEM leukemia, 19.7 µM; in the assay with BT-549 breast, 22.7 µM; with SNB-19 CNS, 30.2 µM. Moreover, the TGI with UACC-62 melanoma amounted to 7.03 µM.
In the case of `O=c1c2c(-c3ccccc3)c3ccccc3nc2cnn1-c1ccccc1`, the TGI with RXF 393 renal, in the assay on MOLT-4 leukemia, in the assay on A498 renal, in the assay with CCRF-CEM leukemia, in the assay with SNB-19 CNS and in the assay with RPMI-8226 leukemia was over 100 µM each time. In addition, the TGI with UACC-62 melanoma was over 100 µM.
As for `COc1cc(C(=O)N[C@H]2CCc3cc(OC)c(OC)c(OC)c3-c3ccc(SC)c(=O)cc32)cc(OC)c1OC`, in the assay on MOLT-4 leukemia, the GI50 is 0.0133 µM. Besides, the TGI with MOLT-4 leukemia is 25 µM and > 100 µM; in the assay with CCRF-CEM leukemia it was 25 µM and > 100 µM; in the assay on SNB-19 CNS, over 100 µM; in the assay with RPMI-8226 leukemia, 25 µM and > 100 µM; in the assay on UACC-62 melanoma, 25 µM and > 100 µM.
Consider `COc1ccc(O)c(C(=O)CCC(=O)O)c1`, for which the TGI with RXF 393 renal, in the assay on MOLT-4 leukemia, with A498 renal, in the assay on CCRF-CEM leukemia, in the assay on SNB-19 CNS and in the assay on RPMI-8226 leukemia was over 100 µM throughout. The compound further yielded a TGI in the assay with UACC-62 melanoma of over 100 µM.
With `CCOP(=O)(OCC)/C(C#N)=C/c1ccccn1`, the TGI with RXF 393 renal, with MCF7 breast, in the assay on MOLT-4 leukemia, with A498 renal, with DU-145 prostate and with CCRF-CEM leukemia was over 100 µM each time. For the same compound, the TGI in the assay on SNB-19 CNS, in the assay on RPMI-8226 leukemia and with UACC-62 melanoma was over 100 µM in each case.
`CCOc1ccc(N=C(NC(=O)c2ccccc2)SC)cc1`: the TGI in the assay with RXF 393 renal, in the assay with MOLT-4 leukemia, in the assay on A498 renal, in the assay on CCRF-CEM leukemia, with SNB-19 CNS and in the assay with RPMI-8226 leukemia was over 100 µM in each case. For the same compound, in the assay on UACC-62 melanoma, the TGI is over 100 µM.
